Experiments:
[1] = target: T1, TREK-1 channel (Rattus norvegicus, UniProt Q920B6); experiment: Assay for TREK channel inhibition activity (whole cell patch clamp recording, COS7 cell transfected with GFP-rTREK-1); assay type: cell-based; conditions: COS7 cells, GFP-rTREK-1, whole-cell patch clamp; for inhibition at 101 µM: COS-7, Table 3 (value ± spread), 101 μM [sic], read-out: block % at 101 μM
T1 construct: expressed in transfected cells; host or cells: COS7 (Korean Cell Line Bank), transient transfection with Effectene
T1 sequence (Q920B6 1-426): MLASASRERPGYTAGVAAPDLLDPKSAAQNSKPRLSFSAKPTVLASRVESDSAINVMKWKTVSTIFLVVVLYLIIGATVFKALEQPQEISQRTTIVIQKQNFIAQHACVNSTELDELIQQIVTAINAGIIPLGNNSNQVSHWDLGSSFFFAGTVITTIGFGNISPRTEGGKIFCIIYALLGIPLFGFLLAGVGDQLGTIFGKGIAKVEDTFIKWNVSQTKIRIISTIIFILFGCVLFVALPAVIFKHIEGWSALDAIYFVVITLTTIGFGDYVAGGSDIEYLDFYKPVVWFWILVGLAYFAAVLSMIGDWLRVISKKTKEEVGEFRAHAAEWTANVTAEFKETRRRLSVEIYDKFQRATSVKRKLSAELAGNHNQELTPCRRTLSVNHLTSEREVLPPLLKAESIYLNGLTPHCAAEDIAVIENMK
Outline: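 Whole-cell patch clamp was run on COS7 cells 24 h after transfection with GFP-rTREK-1, held at −70 mV, using a 1 s ramp from −100 to +100 mV. Current was taken as the difference between +100 and −100 mV values. Block % = 100 − (current after/before blocker) × 100.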

[2] = target: α1G T-type calcium channel (Homo sapiens, UniProt O43497); experiment: Assay for T-type calcium channel inhibition activity (FDSS6000 calcium imaging, KCl activation); assay type: cell-based; conditions: 75 s pre-treatment then KCl 75 mM, HEK293 cells expressing α1G T-type calcium channel and Kir2.1
Chain of α1G T-type calcium channel (O43497 whole entry): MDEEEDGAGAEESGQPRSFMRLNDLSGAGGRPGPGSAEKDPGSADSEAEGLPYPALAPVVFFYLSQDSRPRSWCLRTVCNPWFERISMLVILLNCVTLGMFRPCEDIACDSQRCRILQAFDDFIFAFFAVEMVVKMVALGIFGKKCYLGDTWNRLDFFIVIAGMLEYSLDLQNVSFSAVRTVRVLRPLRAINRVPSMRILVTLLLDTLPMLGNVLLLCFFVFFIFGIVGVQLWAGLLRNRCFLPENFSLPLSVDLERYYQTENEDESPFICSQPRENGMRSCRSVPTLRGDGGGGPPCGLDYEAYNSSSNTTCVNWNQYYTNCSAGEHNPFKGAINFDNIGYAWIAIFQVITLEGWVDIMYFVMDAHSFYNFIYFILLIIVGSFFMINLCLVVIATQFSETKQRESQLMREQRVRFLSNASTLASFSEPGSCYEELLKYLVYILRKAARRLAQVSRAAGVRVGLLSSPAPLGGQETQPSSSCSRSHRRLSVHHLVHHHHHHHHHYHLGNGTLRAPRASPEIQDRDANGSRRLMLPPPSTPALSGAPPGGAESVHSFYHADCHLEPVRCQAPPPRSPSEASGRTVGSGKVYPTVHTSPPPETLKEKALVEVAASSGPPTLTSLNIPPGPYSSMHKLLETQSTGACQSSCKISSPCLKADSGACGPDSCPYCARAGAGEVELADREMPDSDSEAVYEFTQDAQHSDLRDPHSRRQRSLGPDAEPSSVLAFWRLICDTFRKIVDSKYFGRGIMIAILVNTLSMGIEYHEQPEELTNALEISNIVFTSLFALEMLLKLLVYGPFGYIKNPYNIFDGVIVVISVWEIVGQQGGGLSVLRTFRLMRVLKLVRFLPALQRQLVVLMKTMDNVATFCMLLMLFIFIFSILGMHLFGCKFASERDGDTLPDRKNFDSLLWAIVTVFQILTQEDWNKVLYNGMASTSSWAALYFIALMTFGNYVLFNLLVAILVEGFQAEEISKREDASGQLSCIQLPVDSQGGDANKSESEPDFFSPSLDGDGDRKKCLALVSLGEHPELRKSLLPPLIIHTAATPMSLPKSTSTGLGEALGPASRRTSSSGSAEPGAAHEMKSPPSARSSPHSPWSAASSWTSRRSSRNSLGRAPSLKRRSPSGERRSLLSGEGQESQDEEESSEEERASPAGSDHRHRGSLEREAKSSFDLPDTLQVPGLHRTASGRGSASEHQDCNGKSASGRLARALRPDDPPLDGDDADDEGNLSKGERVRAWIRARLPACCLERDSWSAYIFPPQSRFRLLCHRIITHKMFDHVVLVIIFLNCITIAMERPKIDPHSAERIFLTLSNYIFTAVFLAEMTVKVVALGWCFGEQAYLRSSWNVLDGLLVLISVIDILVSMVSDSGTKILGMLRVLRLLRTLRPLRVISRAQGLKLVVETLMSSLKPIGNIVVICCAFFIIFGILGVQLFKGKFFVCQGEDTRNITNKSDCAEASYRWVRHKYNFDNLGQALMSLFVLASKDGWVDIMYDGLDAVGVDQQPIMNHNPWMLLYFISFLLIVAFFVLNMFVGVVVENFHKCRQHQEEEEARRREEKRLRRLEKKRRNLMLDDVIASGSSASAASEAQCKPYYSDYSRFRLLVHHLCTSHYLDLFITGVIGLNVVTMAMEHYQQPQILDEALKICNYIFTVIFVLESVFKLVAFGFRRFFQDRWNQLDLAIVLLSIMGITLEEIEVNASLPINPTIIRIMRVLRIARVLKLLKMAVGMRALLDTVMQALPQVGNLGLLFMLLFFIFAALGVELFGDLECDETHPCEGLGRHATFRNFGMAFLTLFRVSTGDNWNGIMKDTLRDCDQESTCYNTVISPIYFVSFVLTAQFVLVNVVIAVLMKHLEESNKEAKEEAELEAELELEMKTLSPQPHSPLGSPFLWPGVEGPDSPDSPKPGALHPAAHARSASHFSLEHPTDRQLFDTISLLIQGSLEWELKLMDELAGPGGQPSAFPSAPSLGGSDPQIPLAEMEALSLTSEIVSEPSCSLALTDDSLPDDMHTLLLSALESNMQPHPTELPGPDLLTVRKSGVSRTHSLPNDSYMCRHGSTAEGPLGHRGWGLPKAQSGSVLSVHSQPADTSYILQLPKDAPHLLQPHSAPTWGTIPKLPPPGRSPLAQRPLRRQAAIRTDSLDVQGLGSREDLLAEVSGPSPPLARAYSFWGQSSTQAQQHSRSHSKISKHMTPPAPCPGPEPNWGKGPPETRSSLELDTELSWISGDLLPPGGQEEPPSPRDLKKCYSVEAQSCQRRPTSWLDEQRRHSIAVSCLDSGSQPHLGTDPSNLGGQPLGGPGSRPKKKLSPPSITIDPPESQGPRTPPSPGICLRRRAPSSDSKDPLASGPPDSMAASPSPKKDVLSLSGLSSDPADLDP

An inhibition at 101 µM [1] of 71.4 ± 10.8% and an inhibition [2] of 77.4% were found for `Cc1ccc(F)cc1-n1nc(CNC(=O)CN2CCN(C[C@@H](O)COc3ccc(C(F)(F)F)cc3)CC2)cc1CC(C)C` [KKRE10216, (R)-N-((1-(5-fluoro-2-methylphenyl)-5-isobutyl-1H-pyrazol-3-yl)methyl)-2-(4-(2-hydoxy-3-(4-(trifluoromethyl)phenoxy)propyl)piperazin-1-yl)acetamide] in this work.
An inhibition at 101 µM [1] of 26.5 ± 3.97% and an inhibition [2] of 39.9% were found for `OC(COc1ccc(F)cc1)CN1CCN(Cc2nccn2Cc2ccccc2)CC1` (stereo in doubt) [KKRE10154, (R)-1-(4-((1-benzyl-1H-imidazol-2-yl)methyl)piperazin-1-yl)-3-(4-fluorophenoxy)propan-2-ol] in this work.
`O=C(CN1CCN(C[C@H](O)COc2ccc(C(F)(F)F)cc2)CC1)NC1CCCCC1` [KKRE10175, (S)-N-cyclohexyl-2-(4-(2-hydroxy-3-(4-(trifluoromethyl)phenoxy)propyl)piperazin-1-yl)acetamide] was tested, and the inhibition at 10 µM ([1]; COS-7, Table 2, 10 μM, read-out: block % at 10 μM) was 18.1%, the inhibition at 101 µM [1] was 18.1 ± 6.92% and the “block % at 100 μM” value ([1]; Table 2) was 74.61%. The “block % at 100 μM” value ([1]; Table 3 (value ± spread)) was 74.61 ± 2.15% and the inhibition [2] was 43.1%.

— patent US9458120B2, “Phenoxypropanol derivative and pharmaceutical composition including the same” (KOREA INSTITUTE OF SCIENCE AND TECHNOLOGY, priority 2011, dated 2016)
